Laboratory results from patent US8633212B2, “Inhibitors of beta-secretase” (Vitae Pharmaceuticals, Inc., priority 2009, dated 2014).
Read-outs that look alike come from different tables or passages of the source.

What was measured:
[1] = biological target: H4 neuroglioma cell line stably expressing APP with the KM-NL Swedish mutation (H4-APPsw); soluble Amyloid Beta 1-40 (Aβ 1-40) (Homo sapiens (Human), UniProt P56817); assay: BACE cell assay: soluble Aβ 1-40 in culture media of H4-APPsw cells (AlphaLISA/ELISA); assay type: cell-based; details: in vitro cell activity; H4-APPsw cells treated overnight, secreted Aβ 1-40 in culture media
Method: H4 neuroglioma cell line that stably expresses Amyloid Precursor Protein (APP) containing the KM-NL Swedish mutation (H4-APPsw) was generated. For the assay, cells are treated overnight in the presence of inhibitor and the culture media are subjected to ELISA analysis of soluble Amyloid Beta 1-40 (Aβ 1-40).
Generation and Maintenance of H4-APPsw Cell Line
H4 neuroglioma cell line was cultured in DMEM with 10% FBS and 1% penicillin/streptomycin (Culture Medium) at 37° C., 5% CO2. […] 24 hrs after transfection, the cells were replaced into three new plates (150 mm) in fresh Culture Medium with 250 ug/mL Zeocin. […] The levels of APPsw expression were analyzed by immunoblotting and the production of Aβ 1-40 was detected by ELISA of culture supernatants. The selected clones are maintained in Culture Medium with 250 μg/mL Zeocin and routinely split in 3-4 days to maintain 20-80% confluence.
Final Assay Conditions (96-Well Plate)
Split H4-APPsw cells in Culture Medium and culture overnight such that cells will be ˜80% confluent next morning.
Create Compound Dilution Plate.
After determining the desired final concentration of compound to be tested, create a 500× dilution plate. Add DMSO, but not inhibitor, to each well of Column 1. […] Add compounds of interest at 500× desired final concentration to wells A3-A10. […] Dilute contents of Row A 1:3 in Row B, then continue through Rows C-H.
Add 4 μL 5 mM control compound to Media Plate wells A1-D1 for determination of full inhibition.
With a multichannel pipettor, mix each well of Media Plate several times to insure homogeneity. […] Next, place Medium Plate and Cell Plate in the incubator.
Trypsinize and count H4-APPsw cells. Dilute cells 6×10^5 cells/mL in Culture Medium and remove Cell Plate from incubator. Vortex cells to homogeneity, then using a multichannel repeating pipettor, add 100 μL cell suspension to Cell Plate, adding cells from Row H to Row A. Place Cell Plate in incubator.
Change media in Cell Plate.
After 5 h, check Cell Plate by microscope to insure cells are attached. In culture hood, remove media from Cell Plate using multichannel repeating pipettor. Add 100 μl Culture Medium to each well. Remove Media Plate from incubator and mix with pipettor as previous. Add 100 μl from each well of Media Plate to corresponding well in Cell Plate. Place Cell Plate in incubator overnight.
Perform ELISA to determine levels of secreted Aβ 1-40.
After 16 h incubation, spin Cell Plate for 8 min at 1200 rpm. The primary reading of Aβ 1-40 levels is done using PerkinElmer AlphaLISA technology. Follow the manufacturer's protocol for performing AlphaLISA in a white ½ area Optiwell plate using Row 12 for peptide standard (1:2 dilutions, starting at 15 ng/ml). Data are acquired using PerkinElmer Fusion-Alpha FP-HT, Alpha protocol (Count Time 0.6s, Count Time Ratio 30%:70%).
Export data from Fusion using Columnar Report format into a separate file for each plate. Upload data into Activity Base using RIA-DOSE-RESPONSE protocol (Version 1). Data from at least eight doses were fitted to a four parameter logistical model using XLfit software to determine potency.

[2] = biological target: truncated human beta-secretase (residues 1-458, His6-tagged at the C-terminus) (Homo sapiens (Human), UniProt P56817); assay: BACE enzyme assay (fluorescence quench assay, Example 434A); assay type: biochemical; details: read-out: IC50
[3] = footnote a: protocols described in Example 434A

H4 neuroglioma cell line stably expressing APP with the KM-NL Swedish mutation (H4-APPsw); soluble Amyloid Beta 1-40 (Aβ 1-40), sequence (P56817 46-501 limits assumed, change not shown): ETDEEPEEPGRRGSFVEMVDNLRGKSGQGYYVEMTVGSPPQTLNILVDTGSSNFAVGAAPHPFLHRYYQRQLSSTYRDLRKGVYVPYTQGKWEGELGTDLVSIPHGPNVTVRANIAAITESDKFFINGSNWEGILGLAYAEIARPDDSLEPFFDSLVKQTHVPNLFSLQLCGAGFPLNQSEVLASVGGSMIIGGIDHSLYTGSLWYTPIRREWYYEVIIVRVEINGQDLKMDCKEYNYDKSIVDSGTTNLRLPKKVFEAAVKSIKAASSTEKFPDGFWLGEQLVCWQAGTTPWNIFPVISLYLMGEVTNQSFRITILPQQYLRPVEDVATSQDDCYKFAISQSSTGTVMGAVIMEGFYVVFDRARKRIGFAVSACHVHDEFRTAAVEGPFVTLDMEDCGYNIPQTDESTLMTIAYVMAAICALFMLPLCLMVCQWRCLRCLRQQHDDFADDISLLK
truncated human beta-secretase (residues 1-458, His6-tagged at the C-terminus), sequence (P56817 22-458): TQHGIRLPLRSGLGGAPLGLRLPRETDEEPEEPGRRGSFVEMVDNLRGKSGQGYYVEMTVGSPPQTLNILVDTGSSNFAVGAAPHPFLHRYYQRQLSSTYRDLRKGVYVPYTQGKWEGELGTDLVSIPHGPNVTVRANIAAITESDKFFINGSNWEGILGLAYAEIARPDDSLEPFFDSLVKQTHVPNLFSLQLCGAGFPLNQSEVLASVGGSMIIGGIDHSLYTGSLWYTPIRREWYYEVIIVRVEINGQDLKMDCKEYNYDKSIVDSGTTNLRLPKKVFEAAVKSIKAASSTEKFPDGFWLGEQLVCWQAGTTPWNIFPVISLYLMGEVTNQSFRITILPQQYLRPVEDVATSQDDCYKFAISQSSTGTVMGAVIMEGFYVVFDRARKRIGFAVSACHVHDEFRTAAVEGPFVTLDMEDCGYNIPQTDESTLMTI

| SMILES | IC50 [2, 3] [nM] | IC50 [1] [nM] | IC50 [2] [nM] |
| --- | --- | --- | --- |
| CO[C@H]1CC[C@]2(CC1)Cc1ccc(-c3cccc(C#N)c3)cc1C21CC(=O)N(C)C(N)=N1 (stereo partly drawn) [Compound 58, 3-(2″-amino-1′″-methyl-6″-oxo-5″,6″-dihydro-1″H-spiro[spiro[2,3-dihydro-indene-2,1′-(trans-4-methoxycyclohexane)]-1,4′-pyrimidine]-6-yl)benzonitrile] |  | < 100 | 970 |
| CCO[C@H]1CC[C@]2(CC1)Cc1ccc(-c3cccc(C#N)c3)cc1C21N=C(N)N(C)O1 (stereo partly shown) [Compound 28] |  | < 500 | 41.7 |
| COC1CCC2(CC1)Cc1ccc(-c3cccnc3)cc1C21CC(=O)N(C)C(N)=N1 (stereo not drawn) [Compound 59, 2″-amino-1′″-methyl-6-(pyridin-3-yl)-1″H-spiro[spiro[2,3-dihydro-indene-2,1′-(trans-4-methoxycyclohexane)]-1,4′-pyrimidin]-6″(5″H)-one] |  | < 500 | 1550 |
| CN1OC2(N=C1N)c1cc(-c3cccc(C#N)c3)ccc1CC21CCc2cc(F)ccc2C1 (stereo not shown) [Compound 43] |  | < 5000 | 178 |
| CN1OC2(N=C1N)c1cc(Cl)ccc1CC21CCc2ccccc2CC1 (stereo not shown) [Compound 30] | 61.6 | < 5000 |  |
| CN1OC2(N=C1N)c1cc(-c3cccc(C(F)(F)F)c3)ccc1CC21CCc2ccccc2CC1 (stereo not shown) [Compound 39] |  | < 10000 | 158 |
| COC1CCC2(CC1)Cc1ccc(-c3cc(F)cc(Cl)c3)cc1C21CC(=O)N(C)C(N)=N1 (stereo not drawn) [Compound 42, 2″-amino-1′″-methyl-6-(3-chloro-5-fluorophenyl)-1″H-spiro[spiro[2,3-dihydro-indene-2,1′-(trans-4-methoxycyclohexane)]-1,4′-pyrimidin]-6″(5″H)-one] |  | < 100 | 173 |

Further lines, with some results ahead:

| IC50 [2, 3] [nM] | SMILES | IC50 [1] [nM] | IC50 [2] [nM] |
| --- | --- | --- | --- |
| 189 | CN1OC2(N=C1N)c1cc(-c3cccc(C#N)c3)ccc1CC21CCC(F)(F)CC1 (stereo not shown) [Compound 44] | < 5000 |  |
| 160 | CN1OC2(N=C1N)c1cc(-c3cccc(C#N)c3)ccc1CC21Cc2ccccc2C1 (stereo not shown) [Compound 40] | < 5000 |  |
| 443 | CN1OC2(N=C1N)c1cc(-c3cccc(C#N)c3)ccc1CC21CCCC1 (stereo not shown) [Compound 50] | < 1000 |  |
| 161 | CC1=C(C)CC2(CC1)Cc1ccc(-c3cccc(C#N)c3)cc1C21N=C(N)N(C)O1 (stereo not shown) [Compound 41] | < 5000 |  |
| 93.3 | CN1OC2(N=C1N)c1cc(-c3cccc(C#N)c3)ccc1CC21CC=C(F)CC1 (stereo not shown) [Compound 34] | < 1000 |  |
| 4.5 | COC1CCC2(CC1)Cc1ccc(C#CC3CC3)cc1C21N=C(N)N(C)O1 (stereo not shown) [Compound 3] | < 100 |  |
| 295 | CN1OC2(N=C1N)c1cc(-c3cccc(C#N)c3)ccc1CC21C=CC(c2ccccc2)C1 (stereo not shown) [Compound 47] | < 10000 |  |
